Source: patent US20240285808A1, “MOLECULAR PROBES FOR IN VIVO DETECTION OF ALDEHYDES” (The General Hospital Corporation, priority 2021, published 2024)

What was measured:
[1] = Elimination and retention of gadolinium in normal mice; type: in vivo, mouse; conditions: for route of elimination (dynamic whole-body MRI): 100 μmol/kg i.v.; for Gadolinium content, Sum, % ID per Organ / Gadolinium content, Bone, % ID per Gram / Gadolinium content, Bone, % ID per Organ / Gadolinium content, Brain, % ID per Gram / Gadolinium content, Brain, % ID per Organ / Gadolinium content, Heart, % ID per Gram / Gadolinium content, Heart, % ID per Organ / Gadolinium content, Kidneys, % ID per Gram / Gadolinium content, Kidneys, % ID per Organ / Gadolinium content, Liver, % ID per Gram / Gadolinium content, Liver, % ID per Organ / Gadolinium content, Lung, % ID per Gram / Gadolinium content, Lung, % ID per Organ / Gadolinium content, Muscle, % ID per Gram / Gadolinium content, Muscle, % ID per Organ / Gadolinium content, Serum, % ID per Gram / Gadolinium content, Serum, % ID per Organ / Gadolinium content, Spleen, % ID per Gram / Gadolinium content, Spleen, % ID per Organ / Gadolinium content, Stomach, % ID per Gram / Gadolinium content, Stomach, % ID per Organ: 24 h after injection, 100 μmol/kg; for Gadolinium content, Bone, % ID per Gram / Gadolinium content, Bone, % ID per Organ / Gadolinium content, Brain, % ID per Gram / Gadolinium content, Brain, % ID per Organ / Gadolinium content, Heart, % ID per Gram / Gadolinium content, Heart, % ID per Organ / Gadolinium content, Kidneys, % ID per Gram / Gadolinium content, Kidneys, % ID per Organ / Gadolinium content, Liver, % ID per Gram / Gadolinium content, Liver, % ID per Organ / Gadolinium content, Lung, % ID per Gram / Gadolinium content, Lung, % ID per Organ / Gadolinium content, Muscle, % ID per Gram / Gadolinium content, Muscle, % ID per Organ / Gadolinium content, Serum, % ID per Gram / Gadolinium content, Serum, % ID per Organ / Gadolinium content, Spleen, % ID per Gram / Gadolinium content, Spleen, % ID per Organ / Gadolinium content, Stomach, % ID per Gram / Gadolinium content, Stomach, % ID per Organ: n = 4
Method: FIG. 55. […] The liver enhances slightly with first-blood pass but the signal rapidly returns to baseline after 20 min.
At 24 h post-injection (p.i.), >99% of the injected dose of gadolinium was eliminated from the body (Table B).

BSA-ALD = biological target: T1, BSA-ALD (Bos taurus, UniProt P02769); assay: On/off rate with oxidized BSA-ALD; type: binding, bovine; conditions: for fold higher initial on rate / reactivity with BSA-Ald compared to Gd-CHyd: BSA-Ald 10 mg/mL in PBS
T1 construct: made in house; host or cells: no expression host: BSA oxidised chemically with sodium ascorbate, ferric chloride and H2O2, then desalted on PD-10
T1 sequence (P02769 25-607): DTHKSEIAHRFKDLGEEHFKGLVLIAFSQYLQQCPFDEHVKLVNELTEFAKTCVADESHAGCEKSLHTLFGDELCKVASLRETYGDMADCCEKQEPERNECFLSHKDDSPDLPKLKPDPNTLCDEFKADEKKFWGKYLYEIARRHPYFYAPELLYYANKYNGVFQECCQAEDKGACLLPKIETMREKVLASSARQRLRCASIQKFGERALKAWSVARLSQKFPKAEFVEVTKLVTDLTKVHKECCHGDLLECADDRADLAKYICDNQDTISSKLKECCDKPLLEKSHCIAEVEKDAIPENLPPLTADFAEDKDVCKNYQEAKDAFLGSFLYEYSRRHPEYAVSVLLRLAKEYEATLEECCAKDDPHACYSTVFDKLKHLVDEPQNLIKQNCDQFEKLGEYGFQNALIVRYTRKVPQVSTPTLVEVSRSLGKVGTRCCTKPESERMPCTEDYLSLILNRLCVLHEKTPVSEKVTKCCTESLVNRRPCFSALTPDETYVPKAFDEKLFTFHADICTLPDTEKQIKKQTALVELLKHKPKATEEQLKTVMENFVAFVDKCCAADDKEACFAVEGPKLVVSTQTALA
Method: On Off Rate with Oxidized BSA-ALD:
BSA-ALD (10 mg/mL) was incubated with 200 μM corresponding Gd or Mn complex at 37° C. in pH 7.4 PBS), with a total volume of 300 μL. The dynamic longitudinal (T1) relaxation time were measured using a Bruker mq60 Minispec at 1.41 T and 37° C. After 24 hours, protein-bound and protein-free solutions were separated by ultrafiltration. Then 200 μL PBS was added to the residue to dissolve the protein bound species. The change of longitudinal (T1) relaxation time was then measured in Bruker mq60 Minispec at 1.41 T and 37° C.

[2] = system: human fibrotic/cirrhotic liver associated with NASH and normal liver tissue; assay: LA-ICP-MS gadolinium imaging of human liver sections incubated with Gd-9; type: binding
Method: Liver tissues were obtained from a total of 9 anesthetized patients who underwent surgical resection at Massachusetts General Hospital, and analyzed in accordance with a protocol approved by the Massachusetts General Hospital's Institutional Review Board.
Tissue Analysis for Human Tissues
The dissected tissues were immediately snap frozen in OCT using liquid nitrogen, sectioned into 10-μm-thick slices and stored at −80° C. Subsequently, the tissue sections were first allowed to warm to room temperature for 10 min and then fixed in 60% ethanol for 30 min, and washed with PBS. The following steps were the same as described above for the Sirius red staining and DNPH-reactivity assay.
LA-ICP-MS Gadolinium Imaging Analysis
Sample preparation. Harvested rat livers after MR imaging were immediately snapfrozen in OCT using liquid nitrogen, sectioned into 10-μm-thick slices, stored in −80° C. One slice was assessed by LA-ICP-MS directly. One adjacent slide was incubated with 0.1 mM Gd-9 at 37° C. for 2 h, followed with 0.2 mM NaBH3CN for 2 h and washed with PBS (3×10 min). Another adjacent slide was incubated with 0.1 mM Gd-9 and 10 mM hydrazine at 37° C. for 2 h, followed with 0.2 mM NaBH3CN for 2 hand washed with PBS (3×10 min). Similar procedures were carried out for human tissues. Slides were incubated with 0.1 mM Gd-9 at 37° C. for 2h, followed with 0.2 mM NaBH3CN for 2 h and washed with PBS (3×10 min).
Gadolinium mapping. Elemental images were collected from sections of liver tissue via laser ablation inductively coupled plasma mass spectrometry at the Biomedical National Elemental Imaging Resource (BNEIR). The instrumentation used was a New Wave Research 213 nm laser ablation system with a 10 cm^2 sample chamber, interfaced with an Agilent 7900 ICP-MS system. Samples were ablated in no-gas mode, with helium as a carrier gas at a flow rate of […]. The laser power was 65% and the frequency was 20 Hz. Ablation patterns consisted of continuous lines, with either a 12 μm or […] square beam and a scan speed of 120 μm sec^−1 or 200 μm sec^−1 respectively, as noted. The acquisitions time for gadolinium (mass 157) was 0.015 s. Elemental imaging data was quantified using metal-doped gelatin standards prepared at BNEIR and National Institute of Standards and Technology (NIST) certified references material 1515 (apple leaves). Data reduction was performed in the Iolite software application, using carbon (mass 13) as an internal standard to normalize the data.
The applicability of Gd-9 to assess fibrogenesis in human liver specimens was investigated. Resected human fibrotic/cirrhotic liver associated with NASH (n=5) and normal liver tissue (n=4) (Table C) were sectioned and stained for Lys^Ald.

SMILES	route of elimination (dynamic whole-body MRI) [1]	Gadolinium content, Sum, % ID per Organ [1] [% ID per Organ]	Gadolinium content, Bone, % ID per Gram [1] [% ID per Gram]	Gadolinium content, Bone, % ID per Organ [1] [% ID per Organ]	Gadolinium content, Brain, % ID per Gram [1] [% ID per Gram]	Gadolinium content, Brain, % ID per Organ [1] [% ID per Organ]	Gadolinium content, Heart, % ID per Gram [1] [% ID per Gram]	Gadolinium content, Heart, % ID per Organ [1] [% ID per Organ]	Gadolinium content, Kidneys, % ID per Gram [1] [% ID per Gram]	Gadolinium content, Kidneys, % ID per Organ [1] [% ID per Organ]	Gadolinium content, Liver, % ID per Gram [1] [% ID per Gram]	Gadolinium content, Liver, % ID per Organ [1] [% ID per Organ]	Gadolinium content, Lung, % ID per Gram [1] [% ID per Gram]	Gadolinium content, Lung, % ID per Organ [1] [% ID per Organ]	Gadolinium content, Muscle, % ID per Gram [1] [% ID per Gram]	Gadolinium content, Muscle, % ID per Organ [1] [% ID per Organ]	Gadolinium content, Serum, % ID per Gram [1] [% ID per Gram]	Gadolinium content, Serum, % ID per Organ [1] [% ID per Organ]	Gadolinium content, Spleen, % ID per Gram [1] [% ID per Gram]	Gadolinium content, Spleen, % ID per Organ [1] [% ID per Organ]	further results
NN1CCN(C(=O)CCC(C(=O)[O-])N2CCN(CC(=O)[O-])CCN(CC(=O)[O-])CCN(C(CCC(=O)N3CCN(N)CC3)C(=O)[O-])CC2)CC1.[Gd+3] (stereo not drawn) [Gd-9, cis-1,4-Gd-(CHyd)2]	eliminated exclusively via the kidneys into the bladder	0.625	0.0144 ± 0.0125	0.0455 ± 0.0174	0.00336 ± 0.00277	0.0013 ± 0.00125	0.0788 ± 0.0151	0.00708 ± 0.000802	1.33 ± 0.152	0.377 ± 0.0103	0.0686 ± 0.0102	0.0341 ± 0.0250	0.166 ± 0.100	0.0289 ± 0.00394	0.0132 ± 0.00294	0.105 ± 0.0225	0.00138 ± 0.000861	0.00376 ± 0.00113	0.140 ± 0.0558	0.00618 ± 0.000767	Gadolinium content, Stomach, % ID per Gram [1]: 0.114 ± 0.0288 % ID per Gram; Gadolinium content, Stomach, % ID per Organ [1]: 0.0157 ± 0.00274 % ID per Organ; faster on-rate than monobinder Gd-CHyd (BSA-ALD): 600%; fold slower off-rate than Gd-CHyd (BSA-ALD): 1.5 fold; slower off-rate than monobinder Gd-CHyd (BSA-ALD): 50%; fold higher initial on rate / reactivity with BSA-Ald compared to Gd-CHyd (BSA-ALD): 6 fold; average Gd concentration in fibrotic human liver ([2]; across all samples): 80.4±15.5 ppm; average Gd concentration in normal liver ([2]; across all samples): 23.7±10.8 ppm; average Gd concentration in Lys^Ald positive areas ([2]; fibrotic human liver slices incubated with 0.1 mM probe): 30-200 ppm Gd; average Gd concentration in regions with low Lys^Ald ([2]; human liver slices incubated with 0.1 mM probe): < 30 ppm Gd
NN1CCN(C(=O)CCC(C(=O)[O-])N2CCN(CC(=O)[O-])CCN(C(CCC(=O)N3CCN(N)CC3)C(=O)[O-])CCN(CC(=O)[O-])CC2)CC1.[Gd+3] (stereo not drawn) [Gd-10, trans-1,7-Gd-(CHyd)2]	eliminated exclusively via the kidneys into the bladder	0.584	0.0180 ± 0.00486	0.0469 ± 0.0126	0.00206 ± 0.000288	0.000776 ± 0.000169	0.0219 ± 0.00212	0.00203 ± 0.000132	1.45 ± 0.262	0.365 ± 0.0315	0.105 ± 0.00715	0.0572 ± 0.0426	0.157 ± 0.00422	0.0197 ± 0.00107	0.00886 ± 0.000914	0.0709 ± 0.0073	0.00169 ± 0.000259	0.00398 ± 0.000175	0.165 ± 0.0817	0.0086 ± 0.00085	Gadolinium content, Stomach, % ID per Gram [1]: 0.0414 ± 0.02775 % ID per Gram; Gadolinium content, Stomach, % ID per Organ [1]: 0.00869 ± 0.00207 % ID per Organ; fold higher initial on rate / reactivity with BSA-Ald compared to Gd-CHyd (BSA-ALD): 3 fold
